# Measured values reported in US5071845A, “Benzoxazepine derivative” (Suntory Limited, priority 1988, dated 1991).
# pIC50: −log10 of the molar value.
# Target: T1, 5HT1A serotonin receptor (Rattus norvegicus, UniProt P19327)
# T1 construct: To the cerebral cortex enucleated from a Wistarstrain male rat; from tissue; host or cells: cerebral cortex of male Wistar rat, washed membrane homogenate
# T1 sequence (P19327 1-422): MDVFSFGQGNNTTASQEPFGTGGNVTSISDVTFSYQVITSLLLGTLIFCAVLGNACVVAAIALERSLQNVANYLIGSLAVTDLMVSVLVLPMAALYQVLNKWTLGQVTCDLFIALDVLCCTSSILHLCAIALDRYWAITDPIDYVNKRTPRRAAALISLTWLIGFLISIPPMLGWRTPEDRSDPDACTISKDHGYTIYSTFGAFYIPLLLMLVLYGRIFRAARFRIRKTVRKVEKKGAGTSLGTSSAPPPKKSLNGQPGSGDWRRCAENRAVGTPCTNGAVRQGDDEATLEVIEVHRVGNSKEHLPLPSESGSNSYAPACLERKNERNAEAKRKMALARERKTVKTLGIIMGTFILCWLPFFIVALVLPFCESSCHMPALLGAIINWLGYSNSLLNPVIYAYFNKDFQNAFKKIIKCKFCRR
# Experiment: Affinity for Serotonin Receptor ([3H]8-OH-DPAT binding, rat cerebral cortex homogenate)
# Parameters: species or system rat (Wistar strain, male)
# Conditions: [3H]8-OH-DPAT 0.4 nM, 25° C., 30 minutes
# Protocol: The test was conducted according to the method of S. T. Perouka (J. Neurochem., 47, 529-540 (1986)).
# To the cerebral cortex enucleated from a Wistarstrain male rat was added 50 mM Tris-HCl (pH 7.7) buffer and the mixture was homogenized by using Polytron®. The homogenate was centrifuged at 40,000 G for 10 minutes, and to the obtained precipitate was added the same buffer to effect homogenization, followed by incubation at 37° C. for 30 minutes. The suspension was centrifuged again at 40,000 G for 10 minutes, and to the obtained precipitate was added the same buffer to effect homogenization, followed by centrifugation at 40,000 G for 10 minutes. To the final obtained precipitate was added 50 mM Tris-HCl (10 μm pargyline, 4 mM CaCl2, 0.1% ascorbic acid) (pH 7.4) buffer, to effect homogenization, and the homogenate was used for the binding test. The (^3 H) 8-OH-DPAT used for the binding test was 0.4 nM, with a protein amount of 0.4 to 0.6 mg/ml, and a total amount of 1 ml. After incubation at 25° C. for 30 minutes, the mixture was filtered by a filtration method using a Whatman GF/B filter, and the filter was washed three times with 5 ml of the same buffer.
# To the filter was added a scintillation cocktail, and a measurement was conducted by a liquid scintillation counter.
row,pIC50,SMILES
1,8.39,"O=C1COc2cc(Cl)ccc2C(=O)N1CCCCN1CCN(c2ncccn2)CC1 [Example 64, 8-chloro-4-(4-(4-(2-pyrimidinyl)piperazinyl)butyl)-2,3,4,5-tetrahydro-1,4-benzoxazepine-3,5-dione]"
2,8.43,"O=C1COc2ccccc2C(=O)N1CCCCN1CCN(c2ncccn2)CC1 [Example 52, 4-(4-(4-(2-pyrimidinyl)piperazinyl)butyl)-2,3,4,5-tetrahydro-1,4-benzoxazepine-3,5-d]"
3,8.32,"Cc1ccc2c(c1)OCC(=O)N(CCCCN1CCN(c3ncccn3)CC1)C2=O [Example 70, 8-methyl-4-(4-(4-(2-pyrimidinyl)piperazinyl)butyl)-2,3,4,5-tetrahydro-1,4-benzoxazepine-3,5-dione]"
4,8.38,"COc1ccnc(N2CCN(CCCCN3C(=O)COc4ccccc4C3=O)CC2)n1 [Example 83, 4-(4-(4-(4-methoxy-2-pyrimidinyl)piperazinyl)butyl)-2,3,4,5-tetrahydro-1,4-benzoxazepine-3,5-dione]"
5,8.56,O=C1COc2ccccc2C(=O)N1CCCCN1CCN(c2ncccc2Cl)CC1 [Example 48]
6,8.37,"COc1ccc2c(c1)OCC(=O)N(CCCCN1CCN(c3ncccn3)CC1)C2=O [Example 72, 8-methoxy-4-(4-(4-(2-pyrimidinyl)piperazinyl)butyl)-2,3,4,5-tetrahydro-1,4-benzoxazepine-3,5-dione]"
7,8.30,"COc1ccc2c(c1)C(=O)N(CCCCN1CCN(c3ncccn3)CC1)C(=O)CO2 [Example 58, 7-methoxy-4-(4-(4-(2-pyrimidinyl)piperazinyl)butyl)-2,3,4,5-tetrahydro-1,4-benzoxaze-3,5-dione]"

# More lines, now with the values behind:
row,SMILES,pIC50
1,O=C1COc2ccccc2C(=O)N1CCCCN1CCN(c2cccc(Cl)c2)CC1 [Example 39],8.85
2,"COc1ccc2c(c1)C(=O)N(CCCCN1CCN(c3ncccc3Cl)CC1)C(=O)CO2 [Example 54, 7-methoxy-4-(4-(4-(3-chloro-2-pyridyl)-piperazinyl)butyl)-2,3,4,5-tetrahydro-1,4-benzoxazepine-3,5-dione]",8.31
3,"O=C1COc2ccccc2C(=O)N1CCCCN1CCN(c2ccccc2Cl)CC1 [Example 36, 4-(4-(4-(2-chlorophenyl)piperazinyl)butyl)-2,3,4,5-tetrahydro-1,4-benzoxazepine-3,5]",8.64
4,COc1ccccc1N1CCN(CCCCN2CCOc3ccccc3C2=O)CC1 [Example 30],8.58
5,"Cc1ccc2c(c1)OCC(=O)N(CCCCN1CCN(c3ccccn3)CC1)C2=O [Example 65, 8-methyl-4-(4-(4-(2-pyridyl)piperazinyl)butyl)-2,3,4,5-tetrahydro-1,4-benzoxazepine-3,5-dione]",8.81
6,"O=C1c2ccccc2OCCN1CCCCN1CCN(c2ccccn2)CC1 [Example 27, 4-(4-(4-(2-pyridyl)piperazinyl)butyl)-2,3,4,5-tetrahydro-1,4-benzoxazepine-5-one]",8.21
7,"O=C1COc2ccccc2C(=O)N1CCCCN1CCN(c2ccc(F)cc2)CC1 [Example 43, 4-(4-(4-(4-fluorophenyl)piperazinyl)-butyl)-2,3,4,5-tetrahydro-1,4-benzoxazepine-3,5]",8.61
8,"O=C1COc2cc(Cl)ccc2C(=O)N1CCCCN1CCN(c2ccccn2)CC1 [Example 59, 8-chloro-4-(4-(4-(2-pyridyl)piperazinyl)butyl)-2,3,4,5-tetrahydro-1,4-benzoxazepine-3,5-dione]",8.75
